Assay: mn = molality of the nth substance listed, in mol/kg
Conditions: 350 kPa, Liquid; for apparent molar heat capacity: Extra sensitive DSC

OC[C@@H](O)[C@H](O)[C@@H](O)CO [xylitol] + O
Conditions	apparent molar heat capacity [J/K/mol]	mass density [kg/m3]
278.15 K, m1 = 0.0499	278.9	1002.96
278.15 K, m1 = 0.1	288.4	1005.41
278.15 K, m1 = 0.4001	293.3	1020.49
278.15 K, m1 = 0.7496	297.2	1036.91
278.15 K, m1 = 1.001	299.5	1047.83
278.15 K, m1 = 1.498	303.4	1067.95
278.15 K, m1 = 1.997	301.8	1086.45
278.15 K, m1 = 2.701	311.1	1109.42
283.15 K, m1 = 0.0499	296.8	1002.63
283.15 K, m1 = 0.1	306.1	1005.03
283.15 K, m1 = 0.4001	310.2	1019.9
283.15 K, m1 = 0.7496	313.4	1036.06
283.15 K, m1 = 1.001	315.6	1046.82
283.15 K, m1 = 1.498	318.5	1066.63
283.15 K, m1 = 1.997	317.4	1084.9
283.15 K, m1 = 2.701	325	1107.65
288.15 K, m1 = 0.0499	310.8	1001.96
288.15 K, m1 = 0.1	319.8	1004.34
288.15 K, m1 = 0.4001	323.4	1019.04
288.15 K, m1 = 0.7496	326.2	1035
288.15 K, m1 = 1.001	328.1	1045.65
288.15 K, m1 = 1.498	330.3	1065.25
288.15 K, m1 = 1.997	328.7	1083.35
288.15 K, m1 = 2.701	335.7	1105.88
293.15 K, m1 = 0.0499	322.5	–
293.15 K, m1 = 0.1	331.4	–
293.15 K, m1 = 0.4001	334.8	–
293.15 K, m1 = 0.7496	337.1	–
293.15 K, m1 = 1.001	338.8	–
293.15 K, m1 = 1.498	340.5	–
293.15 K, m1 = 1.997	338.3	–
293.15 K, m1 = 2.701	344.9	–
298.15 K, m1 = 0.0499	332.9	999.86
298.15 K, m1 = 0.1	341.6	1002.2
298.15 K, m1 = 0.4001	344.5	1016.61
298.15 K, m1 = 0.7496	346.5	1032.27
298.15 K, m1 = 1.001	347.8	1042.69
298.15 K, m1 = 1.498	349.2	1061.92
298.15 K, m1 = 1.997	346.7	1079.8
298.15 K, m1 = 2.701	352.9	1101.9
303.15 K, m1 = 0.0499	342	–
303.15 K, m1 = 0.1	350.4	–
303.15 K, m1 = 0.4001	352.9	–
303.15 K, m1 = 0.7496	354.6	–
303.15 K, m1 = 1.001	355.8	–
303.15 K, m1 = 1.498	356.9	–
303.15 K, m1 = 1.997	354	–
303.15 K, m1 = 2.701	359.9	–
308.15 K, m1 = 0.0499	349.7	996.7
308.15 K, m1 = 0.1	358.1	999
308.15 K, m1 = 0.4001	360.4	1013.2
308.15 K, m1 = 0.7496	361.7	1028.7
308.15 K, m1 = 1.001	362.8	1038.8
308.15 K, m1 = 1.498	363.6	1057.9
308.15 K, m1 = 1.997	360.6	1075.2
308.15 K, m1 = 2.701	366.2	1097.2
313.15 K, m1 = 0.0499	356.5	–
313.15 K, m1 = 0.1	365	–
313.15 K, m1 = 0.4001	367	–
313.15 K, m1 = 0.7496	368.1	–
313.15 K, m1 = 1.001	369.1	–
313.15 K, m1 = 1.498	369.7	–
313.15 K, m1 = 1.997	366.6	–
313.15 K, m1 = 2.701	371.9	–
318.15 K, m1 = 0.0499	362.5	992.82
318.15 K, m1 = 0.1	370.9	995.17
318.15 K, m1 = 0.4001	372.9	1009.11
318.15 K, m1 = 0.7496	373.8	1024.37
318.15 K, m1 = 1.001	374.7	1034.54
318.15 K, m1 = 1.498	375.2	1053.25
318.15 K, m1 = 1.997	372	1070.4
318.15 K, m1 = 2.701	377.1	1092.04
323.15 K, m1 = 0.0499	368.1	–
323.15 K, m1 = 0.1	376.3	–
323.15 K, m1 = 0.4001	378.3	–
323.15 K, m1 = 0.7496	379.1	–
323.15 K, m1 = 1.001	379.8	–
323.15 K, m1 = 1.498	380.2	–
323.15 K, m1 = 1.997	377	–
323.15 K, m1 = 2.701	381.9	–
328.15 K, m1 = 0.0499	372.9	988.29
328.15 K, m1 = 0.1	381.3	990.59
328.15 K, m1 = 0.4001	383.2	1004.39
328.15 K, m1 = 0.7496	383.8	1019.46
328.15 K, m1 = 1.001	384.5	1029.53
328.15 K, m1 = 1.498	384.7	1048.03
328.15 K, m1 = 1.997	381.6	1064.94
328.15 K, m1 = 2.701	386.3	1086.4
333.15 K, m1 = 0.0499	377.6	–
333.15 K, m1 = 0.1	385.7	–
333.15 K, m1 = 0.4001	387.6	–
333.15 K, m1 = 0.7496	388.2	–
333.15 K, m1 = 1.001	388.8	–
333.15 K, m1 = 1.498	389	–
333.15 K, m1 = 1.997	385.9	–
333.15 K, m1 = 2.701	390.4	–
338.15 K, m1 = 0.0499	382	983.12
338.15 K, m1 = 0.1	389.8	985.45
338.15 K, m1 = 0.4001	391.8	999.12
338.15 K, m1 = 0.7496	392.3	1014.03
338.15 K, m1 = 1.001	392.9	1023.97
338.15 K, m1 = 1.498	392.9	1042.32
338.15 K, m1 = 1.997	389.9	1059.03
338.15 K, m1 = 2.701	394.2	1080.39
343.15 K, m1 = 0.0499	385	–
343.15 K, m1 = 0.1	393.6	–
343.15 K, m1 = 0.4001	395.5	–
343.15 K, m1 = 0.7496	395.9	–
343.15 K, m1 = 1.001	396.5	–
343.15 K, m1 = 1.498	396.5	–
343.15 K, m1 = 1.997	393.5	–
343.15 K, m1 = 2.701	397.7	–
348.15 K, m1 = 0.0499	389	977.37
348.15 K, m1 = 0.1	396.9	979.76
348.15 K, m1 = 0.4001	398.9	993.29
348.15 K, m1 = 0.7496	399.3	1008.12
348.15 K, m1 = 1.001	399.9	1017.97
348.15 K, m1 = 1.498	399.9	1036.22
348.15 K, m1 = 1.997	397	1052.82
348.15 K, m1 = 2.701	400.9	1074.02
353.15 K, m1 = 0.0499	392	–
353.15 K, m1 = 0.1	400	–
353.15 K, m1 = 0.4001	401.9	–
353.15 K, m1 = 0.7496	402.3	–
353.15 K, m1 = 1.001	402.9	–
353.15 K, m1 = 1.498	402.9	–
353.15 K, m1 = 1.997	400.2	–
353.15 K, m1 = 2.701	403.9	–
358.15 K, m1 = 0.0499	394	971.43
358.15 K, m1 = 0.1	402.5	973.65
358.15 K, m1 = 0.4001	404.6	986.64
358.15 K, m1 = 0.7496	404.9	1001.31
358.15 K, m1 = 1.001	405.5	1011.25
358.15 K, m1 = 1.498	405.5	1029.33
358.15 K, m1 = 1.997	403.2	1045.42
358.15 K, m1 = 2.701	406.4	1066.46
363.15 K, m1 = 0.0499	396	–
363.15 K, m1 = 0.1	404	–
363.15 K, m1 = 0.4001	405.9	–
363.15 K, m1 = 0.7496	406.2	–
363.15 K, m1 = 1.001	406.8	–
363.15 K, m1 = 1.498	406.7	–
363.15 K, m1 = 1.997	405.9	–
363.15 K, m1 = 2.701	407.6	–
368.15 K, m1 = 0.0499	–	964.45
368.15 K, m1 = 0.1	–	966.77
368.15 K, m1 = 0.4001	–	980.22
368.15 K, m1 = 0.7496	–	994.89
368.15 K, m1 = 1.001	–	1004.67
368.15 K, m1 = 1.498	–	1022.74
368.15 K, m1 = 1.997	–	1039.27
368.15 K, m1 = 2.701	–	1060.25

Source: the NIST ThermoML archive (doi:10.1016/j.jct.2006.08.009)
